Test results published in patent US20210386761A1, “COMPOSITION FOR PREVENTING OR TREATING INFLAMMATORY BOWEL DISEASE, CONTAINING, AS ACTIVE INGREDIENT, TAURODEOXYCHOLIC ACID OR PHARMACEUTICALLY ACCEPTABLE SALT THEREOF” (SHAPERON INC., priority 2019, published 2021).

Experiments:
[1] = tested on: lamina propria mononuclear cells (LPMC) in the colon tissue; assay: Inflammatory cell analysis (FACS of LPMC from colon tissue) in 2% DSS mouse model; type: in vivo; settings: Day 7; for numbers of CD11b+, Ly6g+, Ly6c+, CD3+, CD4+, CD8+, CD19+, and MHCII+CD11c+ LPMCs in the colon tissue: FIG. 7A
Protocol: A colon tissue was obtained from a mouse which had been subjected to an experiment by the same method as that described in <Example 2> and put into 30 ml of EDTA and dissociated by being stirred at 37° C. for 30 minutes in order to remove mucus. Next, the tissue was drained with a strainer (70 μm) and washed with warm DPBS. The washing process was repeated a total of 4 to 5 times. An enzyme mixture was prepared by adding 2.35 ml of RPMI 1640 or DMEM, 100 μl of enzyme D, 50 μl of enzyme R, and 12.5 μl of enzyme A to a gentleMACS C tube (Miltenyi Biotec, 130-096-334, Bergisch Gladbach, Germany). The tissue was transferred to the gentleMACS C tube containing the enzyme mixture and dissociated using the gentleMACS Dissociator (Miltenyi Biotec, 130-093-235, Bergisch Gladbach, Germany). Next, the reaction was conducted at 37° C. for 40 minutes in a thermal incubator (Thermo scientific, BB-15, Waltham, Mass., USA) under continuous rotation using a MACSmix Tube Rotator. The digested cells were resuspended in 4 ml of 40% Percoll solution. […]
In order to confirm changes in the number of inflammatory cells, FACS analysis was performed. […] Next, the cells were washed two times with DPBS, resuspended in 200 μl DAPI, then analyzed using a flow cytometer (LSR Fortessa cytometer, Mississauga, Canada), and graphed.
Specifically, female C57BL/6 mice were fed with a 2% DSS solution together with drinking water for 7 days from Day 0 of the experiment by the same method as that described in <Example 1>, DPBS or 5 mg/kg TDCA was administered to the mice by oral gavage one time a day for 6 days from Day 1 of the experiment, and the body weight and DAI were measured daily. […]
Specifically, female C57BL/6 mice were fed with a 2% DSS solution together with drinking water for 7 days from Day 0 of the experiment by the same method as that described in <Example 1>, DPBS or 5 mg/kg TDCA was administered to the mice by oral gavage from Day 1 of DSS administration or 2 days before DSS administration, and the body weight and DAI were measured daily. […]

[2] = tested on: chronic inflammatory bowel disease model induced with 2.5% DSS; assay: Chronic inflammatory bowel disease model, repeated 2.5% DSS, comparison with clinical prescription drugs; type: in vivo, mouse
Protocol: In order to evaluate the clinical symptoms-improving efficacy in comparison with those by clinical prescription drugs, inflammatory bowel disease was induced by 7-day or repeated administration of 3% or 2.5% DSS solution, and tofacitinib 10 mg/kg, 5-ASA 100 mg/kg or 200 mg/kg, prednisolone 1 mg/kg, and TDCA 2.5 mg/kg were administered one time a day from the start date of DSS administration. From the start date of DSS administration, TDCA 2.5 mg/kg was administered one time a day (QD), two times a day (BID), and three times a day (TID).

C[C@H](CCC(=O)NCCS(=O)(=O)O)[C@H]1CC[C@H]2[C@@H]3CC[C@@H]4C[C@H](O)CC[C@]4(C)[C@H]3C[C@H](O)[C@]12C [TDCA, sodium taurodeoxycholic acid]
numbers of CD11b+, Ly6g+, and Ly6c+ LPMCs in the colon tissue ([1]; 2% DSS 7 days, 5 mg/kg TDCA oral gavage, vs DSS+DPBS group, FIG. 3A): decreased
numbers of CD11b+, Ly6g+, Ly6c+, CD3+, CD4+, CD8+, CD19+, and MHCII+CD11c+ LPMCs in the colon tissue ([1]; DSS+TDCA group: 5 mg/kg TDCA from Day 1 of DSS): decreased
numbers of CD11b+, Ly6g+, Ly6c+, CD3+, CD4+, CD8+, CD19+, and MHCII+CD11c+ LPMCs in the colon tissue ([1]; DSS+preTDCA group: 5 mg/kg TDCA from 2 days before DSS): decreased
body weight change, compared with clinical prescription drugs ([2]; TDCA 2.5 mg/kg QD, BID and TID vs tofacitinib 10 mg/kg and 5-ASA 200 mg/kg, FIG. 11A): effect equivalent to or higher than those by tofacitinib 10 mg/kg and 5-ASA 200 mg/kg
mortality, compared with clinical prescription drugs ([2]; TDCA 2.5 mg/kg, FIG. 11B): effect equivalent to or higher than those by clinical prescription drugs
